The results in this text go back to US8921368B2, “Pyrrolopyridazine JAK3 inhibitors and their use for the treatment of inflammatory and autoimmune diseases” (Bristol-Myers Squibb Company, priority 2011, dated 2014).

The target of one experiment is JAK3 (Homo sapiens (Human), UniProt P52333). In words: JAK3 Kinase Assay (Caliper / Filter protocols). The experiment is classed as biochemical. The note with it: JAK3 kinase inhibition; ATP 8 μM; read-out: LLE_JAK3_FB (IC50). As to the method:
JAK3 Kinase Assay Protocol (Caliper)
The assay reactions were performed in U-bottom 384-well plates. […] The reaction was initiated by the combination of GST-JAK3 enzyme with substrates and test compounds. The reactions were incubated at room temperature for 3 hours and terminated by adding 60 μl of 35 mM EDTA to each sample. […] Compounds were dissolved at 10 mM in dimethylsulfoxide (DMSO) and evaluated at eleven concentrations. IC50 values were derived by non-linear regression analysis.
JAK3 Kinase Assay Protocol (Filter)
Kinase reactions consisted of 5 ng of JAK3 enzyme, 30 uM CSKtide substrate, 0.2 μCi ^33P γ-ATP, 8 μM ATP in 30 μl kinase buffer (50 mM Hepes, pH 8.0, 10 mM MgCl2, 1 mM EGTA, 2 mM DTT). Reactions were incubated for 30 minutes at room temperature and stopped by the addition of cold trichloroacetic acid (TCA) to a final concentration of 15%. TCA precipitates were collected onto 384 well phosphocellulose filters (Millipore) using a Platemate to transfer the reaction mixture, washed on an EMBLA plate washer and the filters were quantitated using a TopCount 384-well liquid scintillation counter. […] Compounds were dissolved at 10 mM in dimethylsulfoxide (DMSO) and evaluated at six concentrations, each in triplicate. The final concentration of DMSO in the assay equaled 2%. IC50 values were derived by non-linear regression analysis.

The target of the next experiment is JAK1 (Homo sapiens (Human), UniProt P23458). In words: JAK1 Kinase Assay Protocol. The experiment is classed as biochemical. Conditions: GST-JAK1; ATP 100 μM; Caliper LabChip; read-out: LLE_JAK1 (IC50). As for the experimental part: JAK1 Kinase Assay Protocol
Chain of JAK1 (P23458 whole entry): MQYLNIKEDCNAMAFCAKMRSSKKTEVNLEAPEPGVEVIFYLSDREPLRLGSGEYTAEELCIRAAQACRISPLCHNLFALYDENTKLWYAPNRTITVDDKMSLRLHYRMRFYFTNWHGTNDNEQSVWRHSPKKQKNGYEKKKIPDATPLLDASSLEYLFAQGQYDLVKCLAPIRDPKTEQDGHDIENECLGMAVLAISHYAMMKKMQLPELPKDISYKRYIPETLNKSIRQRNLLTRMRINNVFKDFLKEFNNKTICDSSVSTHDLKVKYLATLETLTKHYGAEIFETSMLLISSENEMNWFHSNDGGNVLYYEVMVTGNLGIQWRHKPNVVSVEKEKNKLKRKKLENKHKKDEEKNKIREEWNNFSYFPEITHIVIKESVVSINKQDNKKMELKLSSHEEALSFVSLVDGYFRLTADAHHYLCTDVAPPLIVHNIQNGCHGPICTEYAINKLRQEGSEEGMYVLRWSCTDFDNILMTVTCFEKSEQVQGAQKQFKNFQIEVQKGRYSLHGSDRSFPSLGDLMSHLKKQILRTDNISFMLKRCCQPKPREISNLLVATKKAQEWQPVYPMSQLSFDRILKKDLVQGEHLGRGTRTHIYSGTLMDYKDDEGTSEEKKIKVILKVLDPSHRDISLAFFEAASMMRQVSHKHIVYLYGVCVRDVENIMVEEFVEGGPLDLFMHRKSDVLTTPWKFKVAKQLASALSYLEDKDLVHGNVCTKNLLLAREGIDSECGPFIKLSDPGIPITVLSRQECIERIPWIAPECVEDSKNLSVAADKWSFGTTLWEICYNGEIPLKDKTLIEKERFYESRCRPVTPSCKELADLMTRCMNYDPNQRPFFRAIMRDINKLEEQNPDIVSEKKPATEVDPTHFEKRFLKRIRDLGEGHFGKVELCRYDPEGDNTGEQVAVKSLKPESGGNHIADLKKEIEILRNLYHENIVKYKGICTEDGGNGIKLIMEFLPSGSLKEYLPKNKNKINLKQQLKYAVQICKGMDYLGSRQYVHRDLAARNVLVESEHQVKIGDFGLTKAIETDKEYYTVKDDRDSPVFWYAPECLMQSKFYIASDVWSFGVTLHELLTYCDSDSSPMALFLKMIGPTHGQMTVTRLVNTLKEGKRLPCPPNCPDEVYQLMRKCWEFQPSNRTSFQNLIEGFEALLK
The assay reactions were performed in U-bottom 384-well plates. The final assay volume was 30 μl prepared from 15 μl additions of enzyme and substrates (fluoresceinated peptide and ATP) and test compounds in assay buffer (20 mM HEPES pH 7.4, 10 mM MgCl2, 25 mM beta-glycerol phosphate, 0.015% Brij35 and 4 mM DTT). The reaction was initiated by the combination of GST-JAK1 enzyme with substrates and test compounds. The reactions were incubated at room temperature for 3 hours and terminated by adding 60 μl of 35 mM EDTA to each sample. […] The final concentration of reagents in the assays was: ATP, 100 μM; fluoresceinated peptide, 1.5 μM; GST-JAK1, 12.5 nM; and DMSO, 1.6%. […] Compounds were dissolved at 10 mM in dimethylsulfoxide (DMSO) and evaluated at eleven concentrations. IC50 values were derived by non-linear regression analysis.

A word on the IC50: it is the concentration that gives 50% inhibition.

Chain of JAK3 (P52333 whole entry): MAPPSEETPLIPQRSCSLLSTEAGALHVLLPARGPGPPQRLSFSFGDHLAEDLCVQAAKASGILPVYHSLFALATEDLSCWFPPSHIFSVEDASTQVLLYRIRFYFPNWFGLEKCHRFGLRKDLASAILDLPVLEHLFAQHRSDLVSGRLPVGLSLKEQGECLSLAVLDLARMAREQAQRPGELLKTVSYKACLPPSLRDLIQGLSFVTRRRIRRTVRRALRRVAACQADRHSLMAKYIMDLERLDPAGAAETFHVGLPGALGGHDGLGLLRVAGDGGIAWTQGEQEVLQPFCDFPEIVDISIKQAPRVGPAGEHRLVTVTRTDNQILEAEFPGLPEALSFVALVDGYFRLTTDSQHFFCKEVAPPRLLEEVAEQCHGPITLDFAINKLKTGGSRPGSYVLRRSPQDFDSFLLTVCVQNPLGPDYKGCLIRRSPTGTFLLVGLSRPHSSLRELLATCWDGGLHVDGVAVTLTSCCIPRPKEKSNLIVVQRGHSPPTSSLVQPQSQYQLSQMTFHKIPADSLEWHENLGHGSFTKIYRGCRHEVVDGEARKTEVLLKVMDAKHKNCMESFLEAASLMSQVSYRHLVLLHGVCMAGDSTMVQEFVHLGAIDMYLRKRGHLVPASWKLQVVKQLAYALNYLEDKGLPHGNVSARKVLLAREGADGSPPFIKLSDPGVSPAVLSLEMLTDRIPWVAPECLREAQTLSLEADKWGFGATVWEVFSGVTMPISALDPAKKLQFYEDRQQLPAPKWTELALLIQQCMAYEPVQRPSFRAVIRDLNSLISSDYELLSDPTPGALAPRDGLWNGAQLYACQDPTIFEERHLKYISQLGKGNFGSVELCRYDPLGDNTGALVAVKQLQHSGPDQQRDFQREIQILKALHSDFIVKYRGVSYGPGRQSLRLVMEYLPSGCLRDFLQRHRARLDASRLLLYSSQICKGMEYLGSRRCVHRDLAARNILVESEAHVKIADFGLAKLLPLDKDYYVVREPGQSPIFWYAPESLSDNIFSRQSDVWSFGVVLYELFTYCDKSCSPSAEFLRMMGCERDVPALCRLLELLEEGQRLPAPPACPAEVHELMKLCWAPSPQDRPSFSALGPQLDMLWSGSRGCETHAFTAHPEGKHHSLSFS

In the case of `CC1(C)[C@H](Nc2c(C(N)=O)cnn3cc(NS(=O)(=O)c4ccc(Cl)cc4)cc23)CC[C@@]1(C)O` (racemic) [Example 23], the values for the IC50 on JAK3 and on JAK1 were 23.4 nM and 258 nM, respectively.

Consider `C[C@]1(O)CC[C@@H](Nc2c(C(N)=O)cnn3cc(-c4ccccc4C(N)=O)cc23)CC1` [Example 166, 6-(2-carbamoylphenyl)-4-((cis-4-hydroxy-4-methylcyclohexyl)amino)pyrrolo[1,2-b]pyridazine-3-carboxamide], for which the half-inhibitory concentration (IC50) turned out to be 33.6 nM at JAK3 and 72.4 nM at JAK1.

Regarding `Cn1nccc1-c1cc2c(N[C@@H]3CC[C@](C)(O)C3(C)C)c(C(N)=O)cnn2c1` (racemic) [Example 148], the IC50 at JAK3 turned out to be 25.2 nM; at JAK1 it was 46.4 nM.

With `NC(=O)c1cnn2cc(-c3ccc4scnc4c3)cc2c1NC12CC3CC(O)(CC(O)(C3)C1)C2` [Example 299, 6-(1,3-benzothiazol-5-yl)-4-((3,5-dihydroxyadamantan-1-yl)amino)pyrrolo [1,2-b]pyridazine-3-carboxamide], the concentration for half-maximal inhibition (IC50) stood at 7.3 nM on JAK3 and 4.3 nM at JAK1.

For the molecule `CC1(C)[C@H](Nc2c(C(N)=O)cnn3cc(-c4ccc(N5CCCC5)nc4)cc23)CC[C@]1(C)N` [Example 213, 4-(((1R,3S)-3-amino-2,2,3-trimethylcyclopentyl)amino)-6-(6-(1-pyrrolidinyl)-3-pyridinyl)pyrrolo[1,2-b]pyridazine-3-carboxamide], the half-maximal inhibitory concentration (IC50) came out at 9.5 nM at JAK3 and 17.3 nM at JAK1.

For `CC1(C)[C@H](Nc2c(C(N)=O)cnn3cc(-c4cccnc4)cc23)CC[C@]1(C)N` [Example 192, 4-(((1R,3S)-3-amino-2,2,3-trimethylcyclopentyl)amino)-6-(3-pyridinyl) pyrrolo[1,2-b]pyridazine-3-carboxamide], the results for the half-inhibitory concentration (IC50) at JAK3 and on JAK1 were 0.5 nM and 0.7 nM, respectively.

For `C[C@]1(O)CC[C@@H](Nc2c(C(N)=O)cnn3cc(-c4ccc(C#N)cc4)cc23)CC1` [Example 167, 6-(4-cyanophenyl)-4-((cis-4-hydroxy-4-methylcyclohexyl)amino)pyrrolo[1,2-b]pyridazine-3-carboxamide], the half-maximal inhibitory concentration (IC50) on JAK3 turned out to be 1.6 nM; at JAK1 it was 6.1 nM.

Turning to `Cc1cccc(-c2cc3c(N[C@@H]4CCC[C@]4(C)F)c(C(N)=O)cnn3c2)c1` (racemic) [Example 72], the IC50 at JAK3 was found to be 0.3 nM; at JAK1 it was 1.3 nM.

With `COc1ccc(-c2cc3c(N[C@@H]4CC[C@](C)(C(N)=O)C4(C)C)c(C(N)=O)cnn3c2)cn1` [Example 338, 4-((1R,3S)-3-carbamoyl-2,2,3-trimethylcyclopentylamino)-6-(6-methoxypyridin-3-yl)pyrrolo[1,2-b]pyridazine-3-carboxamide], the 50% inhibitory concentration (IC50) at JAK3 turned out to be 0.3 nM; at JAK1, 1.2 nM.
